# Results as given in article PMC5055185, “Dual pharmacological inhibition of glutathione and thioredoxin systems synergizes to kill colorectal carcinoma stem cells” (Cancer Medicine, 2016).
# Values joined by “and” are separate entries in the source; they are usually repeats but may differ in a detail not shown here. Equal entries are not always repeated.
# Tests used:
# Assay type in all cases: cell-based, human
# [1] = test system: TIG‐3 embryonic fibroblasts (fetal lung); assay: cell survival (trypan blue exclusion, 5 days), TIG-3; conditions: for IC50: TIG3, cellular survival, 5 days; for Ratio of survived cells (Drugs treated/Untreated), Average / Ratio of survived cells (Drugs treated/Untreated), single passage points #: TIG-3
# Description: (§1) Modified procedures of CTOS culture 16 were described elsewhere 10. […] The culture medium was serum‐free advanced DMEM/F‐12 (GIBCO, Waltham, MA) supplemented with FGF‐2 (10 ng/mL, ReproCell, Yokohama, Japan), penicillin ([…], Wako, Osaka, Japan), streptomycin (0.1 mg/mL,Wako), gentamicin (50 μg/mL, Wako), and fungizone (0.25 μg/mL, GIBCO). DLD‐1 and HCT116 CRC cell lines were purchased from JCRB Cell Bank (Osaka, Japan) and RIKEN BioResource Center (Ibaraki, Japan), respectively. In order to estimate pharmacological side effects against normal tissues, human diploid fibroblasts were purchased (JCRB Cell Bank) as model cells. The origins of the fibroblasts were as follows: OUMS‐36 (embryo), TIG‐3 (fetal lung), TIG‐111 (dermal fibroblasts [DFs] from individual), TIG‐119 (DFs from individual), and TIG‐102 (DFs from individual). Adult DFs were purchased from Kurabo (Osaka, Japan). CRC cell lines and fibroblasts were maintained under supplier‐recommended culture conditions. Since the culture conditions are different between fibroblasts and CTOSs, we need to be cautious about the interpretation of data (i.e., lateral comparison between them). […] Colorectal CTOSs display augmented survival through maintaining epithelial structure with E‐cadherin 16. On the other hand, the establishment of conventional cell lines (adherent culture) are much less efficient because constant cell division and autonomous survival are required for the procedure. When we choose CTOSs instead of cancer cell lines, we lose the equivalent condition (adherent culture) as a trade‐off.
# (§2) Each drug's half‐maximal inhibitory concentration (IC50) was calculated based on live cell number ratios (drug treated/untreated × 100%) obtained from serial dilution of drug concentration. The length of drug exposure was 5 days. Each number of live cells was counted automatically by trypan blue exclusion (LUNA automated cell counter, Logos Biosystems, Anyang, South Korea). Cancer spheroids were dispersed with serial treatments (20 min each) of TrypLE™ and Accumax™. Thus, IC50 was determined based on cellular survival, but not on proliferation. We chose the survival index instead of the speed of growth because CTOSs in vitro show very slow proliferation (quiescence), which is one of the hallmarks of CSCs 2. The IC50 values of fibroblasts were accordingly determined based on cellular survival index during quiescence (by contact inhibition). […] To quantify the synergism of two distinct drugs, Combination Index (CI) was calculated 21. A CI value of about 1 (0.90–1.10) was defined as nearly additive and CI values more than (>1.10) and less than (<0.90) were defined as antagonism and synergism, respectively. IC50 and CI were determined using CompuSyn software (ComboSyn, Paramus, NK).
# [2] = test system: TIG‐111 dermal fibroblasts; assay: cell survival (trypan blue exclusion, 5 days), TIG-111; conditions: for IC50: TIG111, cellular survival, 5 days; for Ratio of survived cells (Drugs treated/Untreated), Average / Ratio of survived cells (Drugs treated/Untreated), single passage points #: TIG-111
# Description: as §1, §2
# [3] = test system: DF adult dermal fibroblasts; assay: cell survival (trypan blue exclusion, 5 days), DF; conditions: for IC50: cellular survival, 5 days
# Description: as §1, §2
# [4] = test system: CTOS86 colorectal cancer tissue‐originated spheroids; assay: cell survival (trypan blue exclusion, 5 days), CTOS86; conditions: for IC50: CTOS86, cellular survival, 5 days; for Ratio of survived cells (Drugs treated/Untreated), Average / Ratio of survived cells (Drugs treated/Untreated), single passage points #: CTOS#86
# Description: All experimental procedures were approved by the animal facility at Dokkyo Medical University (ID: 951) and were described elsewhere 10. The existence of CSCs has been experimentally proven through serial xenotransplantation and tumorigenesis 2, 14. […] These subcutaneous tumors were again subjected to enzymatic dissociation and some of the tumor cells were subcutaneously transplanted into other mice. […] Seven cases (CTOS:40, 42, 68, 71, 76, 86, 88) were used for in vitro experiments.
# as §1
# Each drug's half‐maximal inhibitory concentration (IC50) was calculated based on live cell number ratios (drug treated/untreated × 100%) obtained from serial dilution of drug concentration. The length of drug exposure was 5 days. Each number of live cells was counted automatically by trypan blue exclusion (LUNA automated cell counter, Logos Biosystems, Anyang, South Korea). Cancer spheroids were dispersed with serial treatments (20 min each) of TrypLE™ and Accumax™. Thus, IC50 was determined based on cellular survival, but not on proliferation.
# [5] = test system: NRF2 target genes in colorectal CTOSs; assay: qRT-PCR of NRF2 and TP53 target genes in colorectal CTOSs
# Description: Total RNA was purified using RNAiso Plus (Takara, Osaka, Japan). Reverse transcription was performed using PrimeScript™ with gDNA Eraser (Takara). For quantifying the copy number of each mRNA, we used a StepOne™ Real‐Time PCR System (Applied Biosystems, Waltham, MA) and the Taqman® method. Data were calculated according to the modified delta‐cycle of threshold (ΔCT) method. Normalized Log2 expression was defined as follows: (Log2 expression of a gene of interest) = 30 (arbitrary constant) + (CT of 18S rRNA) − (CT of a gene of interest). We used Log2 parameter for statistical analysis because mRNA expression follows a log‐normal distribution, whereas ΔCT follows normal distribution. A gene‐specific fluorescent probe was designed using a web‐based program (https://qpcr.probefinder.com/organism.jsp). […] Gene‐specific Taqman® probes were purchased from Life Technologies, (Waltham, MA, for Cat#, see Table S1 SpreadSheet2). For PCR, Thunderbird® Probe qPCR mix (Toyobo, Osaka, Japan) was used and the PCR conditions consisted of 40 cycles of two steps (95°C for 15 sec and 60°C for 50 sec).
# In order to judge the effect of drug treatments on gene expression, a repeated measures one‐way analysis of variance (ANOVA) was used to determine the variance of Log2 expression from four different groups (untreated, auranofin, CB83, and piperlongumine) using SPSS. Subsequently, the effect of each drug was determined by a paired t test as a post hoc analysis. The P‐values < 0.05 were defined as statistically significant.
# In order to estimate NRF2 compensation induced by pharmacological inhibition of TXNRD (auranofin), G6PD (CB83), or GSTπ (piperlongumine), we quantified gene expression of NRF2 target genes. Activation of NRF2 protein was confirmed by NRF2 phosphorylation (Fig. S5A).
# [6] = test system: phosphorylated NRF2 in embryonic fibroblasts (OUMS and TIG3); assay: NRF2 phosphorylation by western blotting, embryonic fibroblasts; conditions: 24 hours, Auranofin 2µM, Piperlongumine 5µM
# [7] = higher dose (auranofin 4, CB83 25, piperlongumine 10 μmol/L) for 24 h
# [8] = lower dose (auranofin 2, CB83 12.5, piperlongumine 5 μmol/L) for 48 h
compound,measurement,setting,value
"CC[PH](CC)(CC)[Au][S][C@@H]1O[C@H](COC(C)=O)[C@@H](OC(C)=O)[C@H](OC(C)=O)[C@H]1OC(C)=O [Aura, Auranofin]",IC50,[1],1.96 µM
same,"Ratio of survived cells (Drugs treated/Untreated), Average",[1]; Aura 1 microM,83.1429%
same,"Ratio of survived cells (Drugs treated/Untreated), Average",[1]; Aura 2 microM,61.4286%
same,"Ratio of survived cells (Drugs treated/Untreated), Average",[1]; Aura 4 microM,9.571%
same,IC50,[2],1.75 µM
same,"Ratio of survived cells (Drugs treated/Untreated), Average",[2]; Aura 1 microM,94.25%
same,"Ratio of survived cells (Drugs treated/Untreated), Average",[2]; Aura 2 microM,41.75%
same,"Ratio of survived cells (Drugs treated/Untreated), Average",[2]; Aura 4 microM,0%
same,"Ratio of survived cells (Drugs treated/Untreated), single passage points #",[2]; Aura 4 microM,0%
same,"Ratio of survived cells (Drugs treated/Untreated), Average",[3]; Aura 1 microM,88.25%
same,"Ratio of survived cells (Drugs treated/Untreated), Average",[3]; Aura 2 microM,33%
same,"Ratio of survived cells (Drugs treated/Untreated), single passage points #",[3]; Aura 2 microM,38% and 32% and 36% and 26%
same,"Ratio of survived cells (Drugs treated/Untreated), Average",[3]; Aura 4 microM,0%
same,"Ratio of survived cells (Drugs treated/Untreated), single passage points #",[3]; Aura 4 microM,0%
same,IC50,[3],1.59 µM
same,IC50,[4],3.02 µM
same,"Ratio of survived cells (Drugs treated/Untreated), Average",[4]; Aura 1 microM,83.5%
same,"Ratio of survived cells (Drugs treated/Untreated), single passage points #",[4]; Aura 1 microM,75% and 92%
same,"Ratio of survived cells (Drugs treated/Untreated), Average",[4]; Aura 2 microM,64.5%
same,"Ratio of survived cells (Drugs treated/Untreated), single passage points #",[4]; Aura 2 microM,67% and 62%
same,G6PD mRNA expression change,[5]; [7],up‐regulated
same,GCLM mRNA expression change,[5]; [7],up‐regulated
same,TXNRD1 mRNA expression change,[5]; [7],up‐regulated
same,G6PD mRNA expression change,[5]; [8],up‐regulated
same,GCLC mRNA expression change,[5]; [8],up‐regulated
same,GCLM mRNA expression change,[5]; [8],up‐regulated
same,ME1 mRNA expression change,[5]; [8],up‐regulated
same,TXN mRNA expression change,[5]; [8],up‐regulated
same,TXNRD1 mRNA expression change,[5]; [8],up‐regulated
same,NRF2 phosphorylation,[6],less efficiently phosphorylated
"COc1cc(/C=C/C(=O)N2CCC=CC2=O)cc(OC)c1OC [Pipe, Piperlongumine]",IC50,[1],10.6 µM
same,"Ratio of survived cells (Drugs treated/Untreated), Average",[1]; Pipe 2.5 microM,111.833%
same,"Ratio of survived cells (Drugs treated/Untreated), single passage points #",[1]; Pipe 2.5 microM,107% and 154% and 95% and 81% and 127%
same,"Ratio of survived cells (Drugs treated/Untreated), Average",[1]; Pipe 5 microM,79.5%
same,"Ratio of survived cells (Drugs treated/Untreated), single passage points #",[1]; Pipe 5 microM,82% and 60% and 112% and 58% and 92% and 73%
same,"Ratio of survived cells (Drugs treated/Untreated), Average",[1]; Pipe 10 microM,64%
same,IC50,[2],8.04 µM
same,"Ratio of survived cells (Drugs treated/Untreated), Average",[2]; Pipe 2.5 microM,110%
same,"Ratio of survived cells (Drugs treated/Untreated), single passage points #",[2]; Pipe 2.5 microM,85% and 103% and 123% and 129%
same,"Ratio of survived cells (Drugs treated/Untreated), Average",[2]; Pipe 5 microM,95%
same,"Ratio of survived cells (Drugs treated/Untreated), single passage points #",[2]; Pipe 5 microM,69% and 82% and 125% and 104%
same,"Ratio of survived cells (Drugs treated/Untreated), Average",[2]; Pipe 10 microM,19.75%
same,"Ratio of survived cells (Drugs treated/Untreated), Average",[3]; Pipe 2.5 microM,94.8333%
same,"Ratio of survived cells (Drugs treated/Untreated), Average",[3]; Pipe 5 microM,80.3333%
same,"Ratio of survived cells (Drugs treated/Untreated), single passage points #",[3]; Pipe 5 microM,81% and 80% and 83% and 109% and 67% and 62%
same,"Ratio of survived cells (Drugs treated/Untreated), Average",[3]; Pipe 10 microM,12.5%
same,IC50,[3],6.3 µM
same,IC50,[4],7.12 µM
same,"Ratio of survived cells (Drugs treated/Untreated), Average",[4]; Pipe 2.5 microM,79%
same,"Ratio of survived cells (Drugs treated/Untreated), single passage points #",[4]; Pipe 2.5 microM,79%
same,"Ratio of survived cells (Drugs treated/Untreated), Average",[4]; Pipe 5 microM,60%
same,"Ratio of survived cells (Drugs treated/Untreated), single passage points #",[4]; Pipe 5 microM,69% and 51%
same,"Ratio of survived cells (Drugs treated/Untreated), Average",[4]; Pipe 10 microM,39.5%
same,"Ratio of survived cells (Drugs treated/Untreated), single passage points #",[4]; Pipe 10 microM,39% and 40%
same,G6PD mRNA expression change,[5]; [7],up‐regulated
same,GCLM mRNA expression change,[5]; [7],up‐regulated
same,TXNRD1 mRNA expression change,[5]; [7],up‐regulated
same,G6PD mRNA expression change,[5]; [8],up‐regulated
same,GCLM mRNA expression change,[5]; [8],up‐regulated
same,TXNRD1 mRNA expression change,[5]; [8],up‐regulated
same,NRF2 phosphorylation,[6],not
same,NRF2 phosphorylation,[6]; listed as Piperlongmine,almost negligible
